Biological target: T1, ϕ6 P2 (RNA-directed RNA polymerase, RdRP) (Pseudomonas phage phi6, UniProt P11124)
T1 sequence (P11124 1-665): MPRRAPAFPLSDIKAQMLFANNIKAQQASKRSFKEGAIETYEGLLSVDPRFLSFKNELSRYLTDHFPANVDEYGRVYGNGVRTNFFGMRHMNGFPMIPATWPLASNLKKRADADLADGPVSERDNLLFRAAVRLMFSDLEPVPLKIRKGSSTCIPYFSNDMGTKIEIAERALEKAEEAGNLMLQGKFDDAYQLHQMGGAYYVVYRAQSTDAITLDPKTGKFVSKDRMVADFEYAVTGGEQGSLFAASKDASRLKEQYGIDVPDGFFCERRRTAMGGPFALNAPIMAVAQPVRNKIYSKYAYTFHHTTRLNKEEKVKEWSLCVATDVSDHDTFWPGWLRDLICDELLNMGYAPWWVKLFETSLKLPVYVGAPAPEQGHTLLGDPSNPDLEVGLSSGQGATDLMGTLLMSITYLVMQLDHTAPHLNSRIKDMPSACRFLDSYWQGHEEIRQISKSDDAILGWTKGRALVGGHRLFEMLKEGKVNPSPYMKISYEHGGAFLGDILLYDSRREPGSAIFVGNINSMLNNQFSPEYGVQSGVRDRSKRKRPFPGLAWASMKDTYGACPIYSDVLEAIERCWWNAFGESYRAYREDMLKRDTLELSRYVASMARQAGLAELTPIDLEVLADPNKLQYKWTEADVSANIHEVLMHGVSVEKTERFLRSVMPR
Assay: tryptophan fluorescence quenching titration
Assay type: binding

Kd [µM] | Structure (SMILES)
271 ± 31 | Nc1nc2c(ncn2[C@@H]2O[C@H](COP(=O)(O)CP(=O)(O)OP(=O)(O)O)[C@@H](O)[C@H]2O)c(=O)[nH]1 [GMPCPP]
317 ± 31 | Nc1nc2c(ncn2[C@@H]2O[C@H](COP(=O)(O)OP(=O)(O)NP(=O)(O)O)[C@@H](O)[C@H]2O)c(=O)[nH]1 [GMPPNP]

Reference: PMC2926596 (Nucleic Acids Research, 2010)
